The record followed here is patent US11332470B2, “CXCR4 inhibitors and uses thereof” (X4 Pharmaceuticals, Inc., priority 2016, dated 2022).

One data set can be described thus: in vitro. The conditions noted are these: human, Caco-2, pH 7.4. As for the experimental part:
The goal of this assay was to evaluate the intestinal absorption potential of drug candidates using Caco-2 cell lines.
1. Prewarm Prewarm HBSS Buffer in 37° C. water bath
2. Sonicate Take compounds from −20° C., sonicate for a few minutes (no less than 1 minute)
• Donor solution buffer: For A-to-B Direction: HBSS buffer with 0.3% DMSO and 5 μM LY: add 150 μL DMSO and 50 μL LY (5 mM) into 50 ml HBSS buffer (pH 7.4). HBSS buffer with 0.1% DMSO and 5 μM LY: add 50 μL DMSO and 50 μL LY (5 mM) into 50 mL HBSS buffer (pH 7.4). For B-to-A Direction: HBSS buffer with 0.3% DMSO: add 150 μL DMSO into 50 ml HBSS buffer (pH 7.4). HBSS buffer with 0.1% DMSO: add 50 μL DMSO into 50 ml HBSS buffer (pH 7.4). Receiver Solution Buffer: For A-to-B Direction: Prepare HBSS buffer with 0.4% DMSO: add 200 μL DMSO into 50 ml HBSS buffer (pH 7.4). For B-to-A Direction: Prepare HBSS buffer with 0.4% DMSO and 5 μM LY: add 200 μL DMSO and 50 μL LY (5 mM) into 50 ml HBSS buffer (pH 7.4).
4. Measure TEER Take cell culture plate out of incubator, wash the cell monolayers with HBSS buffer, and then measure TEER values at Rm temperature. 5. Centrifuge Centrifuge the compound solution (from step 3) at 4000 rpm for 5 min before loading to donor chambers. 6. Dosing Add solution based on the volumes listed in the following table (make sure to take extra 100 μL of donor sample for TO as Backup).
7. Apical LYT0 samples To determine LY concentration in the apical chamber, take 100 μL sample from apical chambers into an opaque plate for LYT0. 8. Prewarm Prewarm apical and basolateral plates at 37° C. for about 5 min, then begin transport by placing the apical plate onto basolateral plate. 9. Incubation Keep the plates in incubator at 37° C. for 90 min. 10.
Prepare Working Solution in MeOH/H2O (1:1)
• Prepare 1×solution: 3 μL (20×)+57 μL of 0.4% DMSO HBSS+60 μL ACN with IS (Osalmid or Imipramine)−120 μL (1×) 11. Transport termination Separate the apical plate from the basolateral plate after 90-min incubation. 12. Measure LY Take 100 μL samples from basolateral plate to an opaque plate as LYT90. 13. Measure LY concentrations for LYT0 and LYT90 by Fluorometer (at excitation of 485 nm/emission of 535 nm). 14.
Study details: Test concentration 10 μM
Test systems: Caco-2/HBSS solution
Incubation conditions: 0, 90 min at 37° C.
Sample size: Duplicates (n=2)
Bioanalytical method: LC-MS/MS
For Millicell-24 Cell Culture Plates: surface area of the membrane=0.7 cm^2, VA=0.8 mL (A-to-B) or 0.4 mL (B-to-A)
The compound numbers correspond to the compound numbers in Table 1.

In data set [1] the target is T1, CXCR4 (Jurkat cells expressing CXCR4) (Homo sapiens, UniProt P61073).
T1 construct: Jurkat cells expressing CXCR4; endogenous in cells; host or cells: Jurkat
Description: Chemokine (CXCL12-AF647) binding inhibition assay. The conditions noted are these: CXCL12-AF647 25 ng/mL, read-out: IC50 CXCL-12 binding Jurkat. How it is done: Chemokine (CXCL12-AF647) Binding Inhibition Assay
Jurkat cells expressing CXCR4 were washed once with assay buffer (Hanks' balanced salt solution with 20 mM HEPES buffer and 0.2% bovine serum albumin, pH 7.4) and then incubated for 15 min at room temperature with the test compounds diluted in assay buffer at dose-dependent concentrations. Subsequently, CXCL12-AF647 (25 ng/mL) was added to the compound-incubated cells. The cells were incubated for 30 min at room temperature. Thereafter, the cells were washed twice in assay buffer, fixed in 1% paraformaldehyde in PBS, and analyzed on the FL4 channel of a FACSCalibur flow cytometer equipped with a 635-nm red diode laser (Becton Dickinson, San Jose, Calif., USA).
The percentages of inhibition of CXCL12-AF647 binding were calculated according to the formula: [1−((MFI−MFINC)/(MFIPC−MFINC))]×100 where MFI is the mean fluorescence intensity of the cells incubated with CXCL12-AF647 in the presence of the inhibitor, MFINC is the mean fluorescence intensity measured in the negative control (i.e., autofluorescence of unlabeled cells), and MFIPC is the mean fluorescence intensity of the positive control (i.e., cells exposed to CXCL12-AF647 alone).

The target of a further data set is T2, CXCR4 (U87.CXCR4 cells) (Homo sapiens, UniProt P61073).
T2 construct: expressed in transfected cells; host or cells: U87 (U87.CXCR4)
Nature of the data set: Intracellular CXCL-12-induced calcium mobilization assay (FLIPR). It counts as cell-based. The conditions noted are these: CXCL-12 25-50 ng/mL, read-out: IC50 CXCL-12 Ca2+ flux U87.CXCR4+. How it is done:
Intracellular CXCL-12-Induced Calcium Mobilization Assay
Intracellular calcium mobilization induced by chemokines or chemokine-derived peptides were evaluated using a calcium responsive fluorescent probe and a FLIPR system. The CXCR-4 transfected U87 cell line (U87.CXCR4) cells were seeded in gelatine-coated black-wall 96-well plates at 20,000 cells per well and incubated for 12 hours. Cells were then loaded with the fluorescent calcium probe Fluo-2 acetoxymethyl at 4 μM final concentration in assay buffer (Hanks' balanced salt solution with 20 mM HEPES buffer and 0.2% bovine serum albumin, pH 7.4) for 45 min at 37° C. The intracellular calcium mobilization induced by the CXCL-12 (25-50 ng/mL) was then measured at 37° C. by monitoring the fluorescence as a function of time in all the wells simultaneously using a fluorometric imaging plate reader (FLIPR Tetra, Molecular Devices).
(Calcium flux is commonly read through the fluorescence of an indicator in the cells.)

T2 sequence (P61073 whole entry): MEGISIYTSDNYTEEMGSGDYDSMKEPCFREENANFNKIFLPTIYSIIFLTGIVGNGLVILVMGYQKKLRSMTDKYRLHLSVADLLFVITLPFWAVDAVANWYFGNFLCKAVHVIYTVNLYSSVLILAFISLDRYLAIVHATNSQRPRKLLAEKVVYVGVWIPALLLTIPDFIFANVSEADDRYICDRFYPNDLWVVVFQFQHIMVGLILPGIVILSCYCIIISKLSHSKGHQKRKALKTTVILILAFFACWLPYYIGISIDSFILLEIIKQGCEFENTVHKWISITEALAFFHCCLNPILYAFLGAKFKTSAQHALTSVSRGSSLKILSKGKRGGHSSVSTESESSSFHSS
T1 sequence (P61073 whole entry): as above

One may read the Papp A→B as how fast a substance crosses the layer from the apical side. A word on the Papp B→A: it is how fast a substance crosses the layer from the basolateral side. For orientation: efflux ratio means the permeability from basolateral to apical divided by that in the opposite direction, in the common usage. As usually defined, the IC50 is the midpoint of a concentration-inhibition curve. In the case of `Cc1cccnc1C1CCCN1Cc1ccccn1` (stereo not drawn) [Compound I-39], in the data set “in vitro”, the Papp A→B at 90 min, 10 μM was 10 to 30 ×10⁻⁶ cm/s; the Papp B→A at 90 min, 10 μM lay within 10 to 30 ×10⁻⁶ cm/s; the efflux ratio at 90 min, 10 μM was in the range of 0.1 to 10. Moreover, in data set [1], the IC50 was 100 to 1000 nM. Also, the IC50 at CXCR4 (U87.CXCR4 cells) is not below 1 µM.
`Cc1cccnc1C1CCCN1Cc1nccn1-c1ccncc1` (stereo not drawn) [Compound I-115]: the IC50 in data set [1] is 100 to 1000 nM; at CXCR4 (U87.CXCR4 cells) it was not below 1 µM.
In the case of `CN1CCN(C(=O)c2c(CN3CCCC3c3ccccn3)nc3ccccn23)CC1` (stereo not drawn) [Compound I-123], in the data set “in vitro”, the Papp A→B at 90 min, 10 μM fell in the range of 0.1 to 10 ×10⁻⁶ cm/s; the Papp B→A at 90 min, 10 μM is 10 to 30 ×10⁻⁶ cm/s; the efflux ratio at 90 min, 10 μM was in the range of 0.1 to 10. For the same compound, the IC50 in data set [1] is 100 to 1000 nM. Moreover, the IC50 on CXCR4 (U87.CXCR4 cells) was not below 1 µM.
Taken in the same sequence, the figures for `CN1CCN(c2c(C3CCCN3Cc3ccccn3)nc3ccccn23)CC1` (stereo not drawn) [Compound I-101] were 0.1 to 10 ×10⁻⁶ cm/s, more than 30 ×10⁻⁶ cm/s, 0.1 to 10, 0.01 to 100 nM and 0.1 to 1 µM.
With `CN1CCN(c2cccc3nc(CN4CCCC4c4ncc[nH]4)cn23)CC1` (stereo not drawn) [Compound I-50], in “in vitro”, the Papp A→B at 90 min, 10 μM fell in the range of 0.1 to 10 ×10⁻⁶ cm/s; the Papp B→A at 90 min, 10 μM lay in the range of 10 to 30 ×10⁻⁶ cm/s; the efflux ratio at 90 min, 10 μM lay in the range of 0.1 to 10. Further, in data set [1], the IC50 was not below 1000 nM. Moreover, at CXCR4 (U87.CXCR4 cells), the half-inhibitory concentration (IC50) was not below 1 µM.
In the case of `CN1CCN(c2cccc3nc(C4CCCCN4Cc4ccccc4-n4cccn4)[nH]c23)CC1` (stereo not drawn) [Compound I-3, 2-(1-(2-(1H-pyrazol-1-yl)benzyl)piperidin-2-yl)-7-(4-methylpiperazin-1-yl)-1H-benzo[d]imidazole], the IC50 in data set [1] was not below 1000 nM; on CXCR4 (U87.CXCR4 cells), not below 1 µM.
As for `Cc1cccnc1C1CCCN1Cc1nc2ccccc2n1CC1CCN(C)CC1` (stereo not drawn) [Compound I-122], in the data set “in vitro”, the Papp A→B at 90 min, 10 μM lay within 0.1 to 10 ×10⁻⁶ cm/s; the Papp B→A at 90 min, 10 μM was more than 30 ×10⁻⁶ cm/s; the efflux ratio at 90 min, 10 μM lay in the range of 0.1 to 10. In data set [1], the IC50 was in the range of 0.01 to 100 nM. Also, the IC50 on CXCR4 (U87.CXCR4 cells) was in the range of 1e-05 to 0.1 µM.
For the compound `CN1CCN(c2c(CN3CCCC3c3ncc[nH]3)nc3ccccn23)CC1` (stereo not drawn) [Compound I-68], in “in vitro”, the Papp A→B at 90 min, 10 μM was in the range of 0.1 to 10 ×10⁻⁶ cm/s; the Papp B→A at 90 min, 10 μM lay in the range of 10 to 30 ×10⁻⁶ cm/s; the efflux ratio at 90 min, 10 μM was in the range of 0.1 to 10. Moreover, the half-inhibitory concentration (IC50) in data set [1] fell in the range of 100 to 1000 nM. In addition, the IC50 at CXCR4 (U87.CXCR4 cells) is not below 1 µM.
In the case of `OCc1c(CN2CCCC2c2ccccn2)nc2ccccn12` (stereo not drawn) [Compound I-93], the IC50 in data set [1] is 100 to 1000 nM; at CXCR4 (U87.CXCR4 cells) it was not below 1 µM.
For the compound `Cc1cccnc1C1CCCN1Cc1cn2c(CCC#N)cccc2n1` (stereo not drawn) [Compound I-83], in the data set “in vitro”, the Papp A→B at 90 min, 10 μM is 0.1 to 10 ×10⁻⁶ cm/s; the Papp B→A at 90 min, 10 μM was more than 30 ×10⁻⁶ cm/s; the efflux ratio at 90 min, 10 μM was 0.1 to 10. Also, the half-inhibitory concentration (IC50) in data set [1] was 100 to 1000 nM. Besides, the IC50 at CXCR4 (U87.CXCR4 cells) was not below 1 µM.
Consider `Cc1cccnc1C1CCCN1Cc1cn2c(N3CCN(C4CC4)CC3)cccc2n1` (stereo not drawn) [Compound I-32], for which, in the data set “in vitro”, the Papp A→B at 90 min, 10 μM lay within 0.1 to 10 ×10⁻⁶ cm/s; the Papp B→A at 90 min, 10 μM fell in the range of 10 to 30 ×10⁻⁶ cm/s; the efflux ratio at 90 min, 10 μM lay within 0.1 to 10. Further, the IC50 in data set [1] fell in the range of 100 to 1000 nM. Also, the IC50 on CXCR4 (U87.CXCR4 cells) was 0.1 to 1 µM.
`CN1CCN(c2cccc3[nH]c(C4CCCN4Cc4ccccc4-n4cccn4)nc23)CC1` (stereo not drawn) [Compound I-5, 2-(1-(2-(1H-pyrazol-1-yl)benzyl)pyrrolidin-2-yl)-7-(4-methylpiperazin-1-yl)-1H-benzo[d]imidazole]: the IC50 in data set [1] is not below 1000 nM; at CXCR4 (U87.CXCR4 cells), not below 1 µM.
Turning to `Cc1cccnc1C1CCCN1Cc1nccn1C(=O)N1CCN(C)CC1` (stereo not drawn) [Compound I-125], the IC50 is 100 to 1000 nM in data set [1] and not below 1 µM at CXCR4 (U87.CXCR4 cells).
Regarding `Cc1cccnc1C1CCCN1Cc1nccn1-c1cccnc1` (stereo not drawn) [Compound I-114], the results for the IC50 (in data set [1]; at CXCR4 (U87.CXCR4 cells)) were 100 to 1000 nM and not below 1 µM, respectively.
`CN1CCC(n2c(C3CCCN3Cc3ccccn3)nc3ccccc32)CC1` (stereo not drawn) [Compound I-78]: the IC50 is 0.01 to 100 nM in data set [1] and not below 1 µM at CXCR4 (U87.CXCR4 cells).
